According to ChEMBL document CHEMBL1201861, “Genomics of Drug Sensitity in Cancer screening data, Wellcome Trust Sanger Institute”:

How the values were obtained:
Assay in all cases: cells
Conditions in all cases: Homo sapiens
[1] = system: RPMI-8226; format: functional, cell-based
Description: SANGER: Inhibition of human RPMI-8226 cell growth in a cell viability assay.

[2] = system: NOS-1; format: functional, cell-based;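 also: growth inhibition of the human NOS-1 cell line, read out with a cell viability assay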
Description: SANGER: Inhibition of human NOS-1 cell growth in a cell viability assay.

[3] = system: BE-13; format: functional, cell-based;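 also: growth inhibition of human BE-13 cells, measured with a cell viability assay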
Description: SANGER: Inhibition of human BE-13 cell growth in a cell viability assay.

[4] = system: BV-173; format: functional, cell-based
Description: SANGER: Inhibition of human BV-173 cell growth in a cell viability assay.

[5] = system: NCI-H510A; format: functional, cell-based;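 also: growth inhibition of NCI-H510A cells, read out with a cell viability assay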
Description: SANGER: Inhibition of human NCI-H510A cell growth in a cell viability assay.

[6] = system: HCE-4; format: functional, cell-based;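 also: cell viability assay measuring inhibition of growth in the human HCE-4 cell line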
Description: SANGER: Inhibition of human HCE-4 cell growth in a cell viability assay.

[7] = system: NKM-1; format: functional, cell-based;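 also: growth inhibition of NKM-1 cells, read out with a cell viability assay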
Description: SANGER: Inhibition of human NKM-1 cell growth in a cell viability assay.

[8] = system: SW684; format: functional, cell-based;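 also: growth inhibition of human SW684 cells, measured by a cell viability assay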
Description: SANGER: Inhibition of human SW684 cell growth in a cell viability assay.

[9] = system: KS-1; format: functional, cell-based;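 also: growth inhibition of KS-1 cells, read out with a cell viability assay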
Description: SANGER: Inhibition of human KS-1 cell growth in a cell viability assay.

[10] = system: NCI-H2126; format: functional, cell-based;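 also: growth inhibition of the cancer cell line, determined with a cell viability readout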
Description: SANGER: Inhibition of human NCI-H2126 cell growth in a cell viability assay.

[11] = system: HAL-01; format: functional, cell-based;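 also: growth inhibition of human HAL-01 cells, read out with a cell viability assay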
Description: SANGER: Inhibition of human HAL-01 cell growth in a cell viability assay.

[12] = system: IST-MEL1; format: functional, cell-based;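 also: growth inhibition of the cell line, read out with a cell viability assay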
Description: SANGER: Inhibition of human IST-MEL1 cell growth in a cell viability assay.

[13] = system: SK-MEL-2; format: functional, cell-based;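 also: growth inhibition of human SK-MEL-2 cells measured with a cell viability assay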
Description: SANGER: Inhibition of human SK-MEL-2 cell growth in a cell viability assay.

[14] = system: MOLT-16; format: functional, cell-based;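 also: growth inhibition of human MOLT-16 cells, read out with a cell viability assay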
Description: SANGER: Inhibition of human MOLT-16 cell growth in a cell viability assay.

[15] = system: NB69; format: functional, cell-based;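 also: growth inhibition of NB69 cells, determined by a cell viability assay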
Description: SANGER: Inhibition of human NB69 cell growth in a cell viability assay.

[16] = system: NB6; format: functional, cell-based;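 also: growth inhibition of NB6 cells, read out by a cell viability assay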
Description: SANGER: Inhibition of human NB6 cell growth in a cell viability assay.

[17] = system: PSN1; format: functional, cell-based;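 also: suppression of growth of human PSN1 cells, read out by a cell viability assay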
Description: SANGER: Inhibition of human PSN1 cell growth in a cell viability assay.

[18] = system: EW-18; format: functional, cell-based;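 also: growth inhibition of EW-18 cells, read out by a cell viability assay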
Description: SANGER: Inhibition of human EW-18 cell growth in a cell viability assay.

[19] = system: MS-1; format: functional, cell-based;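 also: growth inhibition of MS-1 cells, read out by cell viability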
Description: SANGER: Inhibition of human MS-1 cell growth in a cell viability assay.

[20] = system: HT; format: functional, cell-based
Description: SANGER: Inhibition of human HT cell growth in a cell viability assay.

[21] = system: KM-H2; format: functional, cell-based;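 also: growth inhibition of KM-H2 cells, read out by a cell viability assay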
Description: SANGER: Inhibition of human KM-H2 cell growth in a cell viability assay.

[22] = system: TE-5; format: functional, cell-based;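 also: inhibition of cell growth, read out by a cell viability assay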
Description: SANGER: Inhibition of human TE-5 cell growth in a cell viability assay.

[23] = system: NCI-H526; format: functional, cell-based;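 also: growth inhibition of the human NCI-H526 cell line, measured by a cell viability assay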
Description: SANGER: Inhibition of human NCI-H526 cell growth in a cell viability assay.

[24] = system: ES7; format: functional, cell-based;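 also: growth inhibition of cultured human ES7 cells, read out as cell viability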
Description: SANGER: Inhibition of human ES7 cell growth in a cell viability assay.

[25] = system: LS-411N; format: functional, cell-based
[26] = system: RCC10RGB; format: functional, cell-based;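 also: growth inhibition of human RCC10RGB cells, read out by a cell viability assay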
Description: SANGER: Inhibition of human RCC10RGB cell growth in a cell viability assay.

[27] = system: KP-N-YS; format: functional, cell-based;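 also: cell viability assay measuring inhibition of cell line growth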
Description: SANGER: Inhibition of human KP-N-YS cell growth in a cell viability assay.

[28] = system: NH-12; format: functional, cell-based;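 also: growth inhibition of NH-12 cells, read out with a cell viability assay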
Description: SANGER: Inhibition of human NH-12 cell growth in a cell viability assay.

[29] = system: KG-1; format: functional, cell-based;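 also: growth inhibition of KG-1 cells, read out by a cell viability assay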
Description: SANGER: Inhibition of human KG-1 cell growth in a cell viability assay.

[30] = system: NCI-H1092; format: functional, cell-based;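 also: cell growth inhibition measured with a cell viability assay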
Description: SANGER: Inhibition of human NCI-H1092 cell growth in a cell viability assay.

[31] = system: EKVX; format: functional, cell-based;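 also: growth inhibition of human EKVX cells, read out with a cell viability assay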
Description: SANGER: Inhibition of human EKVX cell growth in a cell viability assay.

[32] = system: U-87 MG; format: functional, cell-based, U-87MG ATCC;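 also: growth inhibition of the cells measured with a viability assay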
Description: SANGER: Inhibition of human U-87-MG cell growth in a cell viability assay.

[33] = system: MHH-NB-11; format: functional, cell-based;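 also: growth inhibition of human MHH-NB-11 cells, read out by a cell viability assay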
Description: SANGER: Inhibition of human MHH-NB-11 cell growth in a cell viability assay.

[34] = system: D-263MG; format: functional, cell-based
Description: SANGER: Inhibition of human D-263MG cell growth in a cell viability assay.

[35] = system: 8-MG-BA; format: functional, cell-based;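 also: growth inhibition of 8-MG-BA cells, read out with a cell viability assay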
Description: SANGER: Inhibition of human 8-MG-BA cell growth in a cell viability assay.

[36] = system: K562; format: functional, cell-based
Description: SANGER: Inhibition of human K-562 cell growth in a cell viability assay.

[37] = system: SW872; format: functional, cell-based;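 also: growth inhibition of SW872 cells, read out by a viability assay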
Description: SANGER: Inhibition of human SW872 cell growth in a cell viability assay.

[38] = system: DJM-1; format: functional, cell-based;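 also: growth inhibition of human DJM-1 cells, read out by a cell viability assay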
Description: SANGER: Inhibition of human DJM-1 cell growth in a cell viability assay.

[39] = system: SCH; format: functional, cell-based;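 also: growth inhibition of human SCH cells, read out in a cell viability assay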
Description: SANGER: Inhibition of human SCH cell growth in a cell viability assay.

[40] = system: ACN; format: functional, cell-based;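 also: growth inhibition of the human ACN cell line, read out via cell viability testing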
Description: SANGER: Inhibition of human ACN cell growth in a cell viability assay.

[41] = system: TE-1; format: functional, cell-based;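 also: growth inhibition of the human TE-1 cell line, read out with a cell viability assay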
Description: SANGER: Inhibition of human TE-1 cell growth in a cell viability assay.

[42] = system: LB831-BLC; format: functional, cell-based;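 also: growth inhibition of LB831-BLC cells, read out with a cell viability assay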
Description: SANGER: Inhibition of human LB831-BLC cell growth in a cell viability assay.

[43] = system: NCI-H1155; format: functional, cell-based;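 also: cell growth inhibition measured by a viability assay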
Description: SANGER: Inhibition of human NCI-H1155 cell growth in a cell viability assay.

[44] = system: GOTO; format: functional, cell-based;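 also: growth inhibition of GOTO cells, read out by a cell viability assay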
Description: SANGER: Inhibition of human GOTO cell growth in a cell viability assay.

[45] = system: COLO-829; format: functional, cell-based
Description: SANGER: Inhibition of human COLO-829 cell growth in a cell viability assay.

[46] = system: SW982; format: functional, cell-based;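 also: growth inhibition of SW982 cells, read out with a cell viability assay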
Description: SANGER: Inhibition of human SW982 cell growth in a cell viability assay.

[47] = system: NCI-H23; format: functional, cell-based;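 also: cell viability assay measuring growth inhibition of NCI-H23 cells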
Description: SANGER: Inhibition of human NCI-H23 cell growth in a cell viability assay.

[48] = system: COLO-684; format: functional, cell-based
Description: SANGER: Inhibition of human COLO-684 cell growth in a cell viability assay.

[49] = system: SCC-15; format: functional, cell-based;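 also: growth inhibition of SCC-15 cells, read out with a cell viability assay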
Description: SANGER: Inhibition of human SCC-15 cell growth in a cell viability assay.

[50] = system: IST-SL1; format: functional, cell-based;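 also: growth inhibition of human IST-SL1 cells, read out with a cell viability assay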
Description: SANGER: Inhibition of human IST-SL1 cell growth in a cell viability assay.

[51] = system: NCI-H1838; format: functional, cell-based;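 also: growth inhibition of NCI-H1838 cells, determined with a cell viability readout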
Description: SANGER: Inhibition of human NCI-H1838 cell growth in a cell viability assay.

[52] = system: SK-NEP-1; format: functional, cell-based;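 also: growth inhibition of human SK-NEP-1 cells, read out by a cell viability assay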
Description: SANGER: Inhibition of human SK-NEP-1 cell growth in a cell viability assay.

[53] = system: P30-OHK; format: functional, cell-based;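 also: growth inhibition of the P30-OHK cell line, read out with a cell viability assay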
Description: SANGER: Inhibition of human P30-OHK cell growth in a cell viability assay.

[54] = system: MMAC-SF; format: functional, cell-based;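 also: growth inhibition of human MMAC-SF cells, read out with a cell viability assay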
Description: SANGER: Inhibition of human MMAC-SF cell growth in a cell viability assay.

[55] = system: NCI-H209; format: functional, cell-based;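 also: growth inhibition of human NCI-H209 cells, measured by a cell viability assay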
Description: SANGER: Inhibition of human NCI-H209 cell growth in a cell viability assay.

[56] = system: SH-4; format: functional, cell-based;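 also: growth inhibition of SH-4 cells, read out with a cell viability assay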
Description: SANGER: Inhibition of human SH-4 cell growth in a cell viability assay.

[57] = system: Ramos-2G6-4C10; format: functional, cell-based;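 also: growth inhibition of the cell line, measured by a cell viability read-out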
Description: SANGER: Inhibition of human Ramos-2G6-4C10 cell growth in a cell viability assay.

[58] = system: BB65-RCC; format: functional, cell-based;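 also: growth inhibition of the cell line, measured with a cell viability assay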
Description: SANGER: Inhibition of human BB65-RCC cell growth in a cell viability assay.

[59] = system: 697; format: functional, cell-based
Description: SANGER: Inhibition of human 697 cell growth in a cell viability assay.

[60] = system: LB771-HNC; format: functional, cell-based
Description: SANGER: Inhibition of human LB771-HNC cell growth in a cell viability assay.

[61] = system: JVM-3; format: functional, cell-based
Description: SANGER: Inhibition of human JVM-3 cell growth in a cell viability assay.

[62] = system: MZ2-MEL; format: functional, cell-based
Description: SANGER: Inhibition of human MZ2-MEL cell growth in a cell viability assay.

[63] = system: LXF-289 cell line; format: functional, cell-based
Description: SANGER: Inhibition of human LXF-289 cell growth in a cell viability assay.

[64] = system: GCIY; format: functional, cell-based
Description: SANGER: Inhibition of human GCIY cell growth in a cell viability assay.

[65] = system: KLE; format: functional, cell-based
Description: SANGER: Inhibition of human KLE cell growth in a cell viability assay.

[66] = system: KU812 cell line; format: functional, cell-based
Description: SANGER: Inhibition of human KU812 cell growth in a cell viability assay.

`NC(=O)c1ncn([C@@H]2O[C@H](COP(=O)(O)O)[C@@H](O)[C@H]2O)c1N` showed an IC50 [1] of 501 µM, an IC50 [2] of 524 µM and an IC50 [3] of 365 µM. For the same compound, the IC50 [4] was 93.8 µM, the IC50 [5] was > 2000 µM and the IC50 [6] was 1710 µM. For the same compound, the IC50 [7] was 180 µM, the IC50 [8] was 896 µM and the IC50 [9] was 1250 µM. For the same compound, the IC50 [10] was > 2000 µM, the IC50 [11] was 434 µM and the IC50 [12] was > 2000 µM. The IC50 [13] was > 2000 µM, the IC50 [14] was > 2000 µM and the IC50 [15] was 976 µM. The IC50 [16] was > 2000 µM, the IC50 [17] was 1950 µM and the IC50 [18] was > 2000 µM. It also gave an IC50 [19] of 425 µM, an IC50 [20] of 995 µM and an IC50 [21] of 1170 µM. For the same compound, the IC50 [22] was > 2000 µM, the IC50 [23] was 115 µM and the IC50 [24] was > 2000 µM. For the same compound, the IC50 [25] was > 2000 µM, the IC50 [26] was > 2000 µM and the IC50 [27] was > 2000 µM. The IC50 [28] was > 2000 µM, the IC50 [29] was 301 µM and the IC50 [30] was 1220 µM. For the same compound, the IC50 [31] was > 2000 µM, the IC50 [32] was > 2000 µM and the IC50 [33] was 1110 µM. The IC50 [34] was > 2000 µM, the IC50 [35] was > 2000 µM and the IC50 [36] was > 2000 µM. The IC50 [37] was > 2000 µM, the IC50 [38] was > 2000 µM and the IC50 [39] was > 2000 µM. For the same compound, the IC50 [40] was 1880 µM, the IC50 [41] was 207 µM and the IC50 [42] was > 2000 µM. The IC50 [43] was 800 µM, the IC50 [44] was > 2000 µM and the IC50 [45] was > 2000 µM. For the same compound, the IC50 [46] was > 2000 µM, the IC50 [47] was > 2000 µM and the IC50 [48] was 894 µM. The IC50 [49] was 466 µM, the IC50 [50] was > 2000 µM and the IC50 [51] was > 2000 µM. For the same compound, the IC50 [52] was 611 µM, the IC50 [53] was 541 µM and the IC50 [54] was > 2000 µM. For the same compound, the IC50 [55] was > 2000 µM, the IC50 [56] was > 2000 µM and the IC50 [57] was 238 µM. For the same compound, the IC50 [58] was 1200 µM, the IC50 [59] was 483 µM and the IC50 [60] was > 2000 µM. The IC50 [61] was > 2000 µM and the IC50 [62] was > 2000 µM.

For `Cc1[nH]c(/C=C2\C(=O)Nc3ccc(S(=O)(=O)Cc4c(Cl)cccc4Cl)cc32)c(C)c1C(=O)N1CCC[C@@H]1CN1CCCC1` [PHA-665752], the IC50 [1] was > 2 µM, the IC50 [2] was > 2 µM and the IC50 [3] was > 2 µM. The IC50 [4] was > 2 µM, the IC50 [5] was > 2 µM and the IC50 [63] was > 2 µM. The IC50 [6] was > 2 µM, the IC50 [7] was > 2 µM and the IC50 [8] was > 2 µM. For the same compound, the IC50 [9] was > 2 µM, the IC50 [10] was > 2 µM and the IC50 [11] was > 2 µM. The IC50 [12] was > 2 µM, the IC50 [64] was > 2 µM and the IC50 [13] was > 2 µM. The IC50 [14] was > 2 µM, the IC50 [15] was > 2 µM and the IC50 [16] was > 2 µM. For the same compound, the IC50 [17] was > 2 µM, the IC50 [65] was > 2 µM and the IC50 [18] was > 2 µM. The IC50 [19] was > 2 µM, the IC50 [20] was > 2 µM and the IC50 [66] was > 2 µM. For the same compound, the IC50 [21] was > 2 µM, the IC50 [22] was > 2 µM and the IC50 [23] was > 2 µM. For the same compound, the IC50 [24] was > 2 µM, the IC50 [25] was > 2 µM and the IC50 [26] was > 2 µM. For the same compound, the IC50 [27] was > 2 µM, the IC50 [28] was > 2 µM and the IC50 [29] was > 2 µM. For the same compound, the IC50 [30] was > 2 µM, the IC50 [31] was > 2 µM and the IC50 [32] was > 2 µM. The IC50 [33] was > 2 µM, the IC50 [34] was > 2 µM and the IC50 [35] was > 2 µM. For the same compound, the IC50 [36] was > 2 µM, the IC50 [37] was > 2 µM and the IC50 [38] was > 2 µM. The IC50 [40] was > 2 µM, the IC50 [41] was > 2 µM and the IC50 [42] was > 2 µM. The IC50 [43] was > 2 µM, the IC50 [44] was > 2 µM and the IC50 [45] was > 2 µM. The IC50 [46] was > 2 µM, the IC50 [47] was > 2 µM and the IC50 [48] was > 2 µM. For the same compound, the IC50 [49] was > 2 µM, the IC50 [50] was > 2 µM and the IC50 [51] was > 2 µM. For the same compound, the IC50 [52] was > 2 µM, the IC50 [53] was > 2 µM and the IC50 [54] was > 2 µM. For the same compound, the IC50 [55] was > 2 µM, the IC50 [56] was > 2 µM and the IC50 [57] was > 2 µM. For the same compound, the IC50 [58] was > 2 µM, the IC50 [59] was > 2 µM and the IC50 [60] was > 2 µM. The IC50 [61] was > 2 µM and the IC50 [62] was > 2 µM.
